In PubChem BioAssay AID179 (DTP/NCI, 2004):
Values joined by “and” are separate entries in the source; they are usually repeats but may differ in a detail not shown here. Equal values may be shown once. Active and inactive are the calls of the source.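 How the source made its calls: active means compounds giving half or more protection of infected cells from virus-caused growth loss, again on retest; inactive means the rest.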 Where a SMILES comes first, the peptide text is derived from it. The star is where a group is joined. Boc = CC(C)(C)OC(=O)*

System: CEM cells HIV-1 protection, formazan growth assay
Experiment: NCI AIDS Antiviral Assay
Details: for IC50: measured here: growth of uninfected CEM cells
How it was run: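 Protection of CEM cells against HIV-1 measured as cell growth via soluble formazan read-out, with five concentrations tested on both infected and uninfected cells; failure to protect may reflect toxicity.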

| SMILES | EC50 [µM] | IC50 | outcome |
| --- | --- | --- | --- |
| COC(=O)CNC(=O)C(Cc1ccccc1)NC(=O)C(Cc1ccccc1)NC(=O)OC(C)(C)C (stereo not drawn) (Boc-Phe-Phe-Gly-OMe; configuration not given here) | > 200 | 24 µM | – |
| c1ccc2c(c1)sc1scc[n+]12 | > 617 | 12.9 µM | – |
| O=C1OC(c2cccc(C(F)(F)F)c2)c2ccc3ccccc3c21 (stereo not drawn) | – | – | inactive |
| NC(=S)N/N=C(\Cc1nc2ccc(Cl)cc2[nH]c1=O)C(=O)Nc1ccc(Cl)cc1 | > 41.7 | > 41.7 µM | – |
| CC(C)(C)OC(=O)CC(NC(=O)OC(C)(C)C)C(=O)NC(C(=O)O)C(O)c1ccccc1 (stereo not drawn) | > 200 | 93.3 µM | – |
| CCOC(=O)c1c(N)sc2c1CCCC2 | > 200 | 56.2 µM | – |
| COC(=O)C(=O)C(C(=O)C(=O)Nc1cc(C)ccc1C)c1nc2ccc(C(=O)c3ccccc3)cc2[nH]c1=O (stereo not drawn) | – | – | inactive |
| c1ccc2c(c1)[nH]c1c2nc2ccccn21 | > 1020 | > 1020 µM | inactive |
| C=CCn1c(-c2ccc(-c3cs/c(=N\N=O)n3CC=C)cc2)cs/c1=N\N=O | > 100 | > 100 µM | – |
| O=Cc1cn(CCCCCCCCCCCCn2cc(C=O)c3ccccc32)c2ccccc12 | > 200 | 1.2 µM | – |
| Cc1ccc(/C=C/C(=O)c2c([O-])on[n+]2-c2ccccc2)cc1 | > 200 | 2.63 µM | – |
| O=C1c2ccccc2C(=O)N1C/C=N/NS(=O)(=O)c1ccc(Br)cc1 | > 112 | > 112 µM | – |
| C=C(C)C(=O)OC1C[C@H](COC(C)=O)C2CC=C(CO)C2C2OC(=O)C(=C)[C@H]12 (stereo partly drawn) | > 200 | 9.12 µM | – |
| CC#CC(O)(C(=O)OCCCN(C)C)C1CCCCC1 (stereo not drawn) | > 200 | > 200 µM | – |
| CCC1CC2CN3CCc4c([nH]c5ccc(OC)cc45)C(C(=O)OC)(C2)C13 (stereo not drawn) | – | – | inactive |
| CC1=C[C@H]2O[C@@H]3C[C@H]4OC(=O)/C=C\C=C\C(C(C)O)OCC[C@@H](C)[C@H](O)C(=O)OC[C@@]2(CC1)[C@]4(C)[C@]31CO1 (stereo partly drawn) | > 0.0479 | 0.000102 µM | – |
| CC(C)CNC(=O)Cn1c(-c2ccccc2)cc2ccccc21 | > 200 | 195 µM | – |
| OC(c1ccccc1)c1cccc(C(O)c2ccccc2)c1 (stereo not drawn) | > 123 | > 123 µM | – |
| O=C(O)c1ccccc1NS(=O)(=O)c1ccc(Cl)cc1 | – | – | inactive |
| COC1(OC)C2(Cl)CCC1(Cl)C(OC(C)=O)C2 (stereo not drawn) | > 200 | 145 µM | – |
| CC(=O)C(CCC#N)(CCC#N)CCC#N | > 200 | > 200 µM | – |

| SMILES | EC50 [µM] | IC50 | outcome |
| --- | --- | --- | --- |
| COC(=O)/C(C#N)=C\NC(=S)NNC(C)=O | > 200 | > 200 µM | – |
| CN=c1ccc2cc3ccc(NC)cc3oc-2c1 | > 200 | 37.2 µM | – |
| CC[C@@]1(O)C[C@H](OC2CC(N(C)C)C(OC3CC(O)C(OC4CCC(=O)C(C)O4)C(C)O3)C(C)O2)c2c(cc3c(c2O)C(=O)c2c(O)ccc(O)c2C3=O)[C@H]1C(=O)OC (stereo partly drawn) | > 6.31 | 0.0055 µM and 0.0158 µM | – |
| CC(CS(C)(=O)=O)S(=O)(=O)O (stereo not drawn) | > 200 | > 200 µM | – |
| COC(=O)C1Cc2c([nH]c3ccccc23)C(C2CCCCC2)N1 (stereo not drawn) | – | – | inactive |
| COc1ccc(S(=O)Cc2cc(OC)ccc2OC)cc1 (stereo not drawn) | – | – | inactive |
| C[N+](C)(C)C.[C-]#[O+].[C-]#[O+].[C-]#[O+].[C-]#[O+].[Cr].c1ccc(N=N[N-]c2ccccc2)cc1 | > 1.26 | > 1.26 µM | – |
| COC(=O)c1cc2cc(CS(=O)(=O)O)ccc2cc1O | > 200 | 102 µM | – |
| CNc1nnc(CNc2ccc(-c3nnc(NC)n3N)cc2)n1N | > 200 | > 200 µM | – |
| COc1ccc2c(-c3ccc(OCCN(C)C)cc3)c(Oc3ccc(Cl)cc3)c(=O)oc2c1 | > 200 | 5.89 µM | – |
| N#C/C(=C\c1cccc(C#N)c1)c1ccccc1 | > 31.6 | > 31.6 µM | – |
| Nc1ccc(N=Nc2ccc(-c3ccc(N=Nc4c(S(=O)(=O)O)cc5cc(S(=O)(=O)O)c(N=Nc6cccc([N+](=O)[O-])c6)c(N)c5c4O)cc3)cc2)c2cc(S(=O)(=O)O)ccc12 | – | – | active |
| CC1(C)Oc2ccc3c(=O)cc(-c4ccccc4)oc3c2C1C(=O)O (stereo not drawn) | > 200 | > 200 µM | – |
| Cc1ccc(S(=O)(=O)/C(C#N)=C\N2CC(=O)NC2=S)cc1 | > 200 | > 200 µM | – |
| CC(=O)Oc1cc2c(cc1OCC(F)(F)F)[C@H]1CC[C@]3(C)[C@@H](OC(C)=O)CC[C@H]3[C@@H]1CC2=O | > 200 | 22.4 µM | – |
| Cn1c(C2CC(C)(C)c3c2c2ccccc2n3C)cc2ccccc21 (stereo not drawn) | > 21.9 | > 21.9 µM | – |
| CC1(C)C=C(S(=O)(=O)c2ccccc2)Oc2ccccc2O1 | > 200 | 132 µM | – |
| CCCCCCCCCCCCCCCC[N+](C)(C)CCN(Cc1ccc(OC)cc1)c1ncccn1 | > 200 | 0.977 µM | – |
| O=C(NI1OC(=O)c2ccccc21)c1ccc(Cl)cc1 | > 151 | 85.1 µM | – |
| O=c1ccn(C2CC(CO)C(CO)C2)c(=O)[nH]1 (stereo not drawn) | > 105 | > 105 µM | – |
| COc1ccc2c(-c3ccc(O)cc3)c(Oc3ccccc3)c(=O)oc2c1 | – | – | inactive |

| SMILES | EC50 [µM] | IC50 | outcome |
| --- | --- | --- | --- |
| COc1ccc(Nc2nc(NNC(=O)Cc3ccccc3)nc(NNC(=O)c3ccncc3)n2)cc1 | > 178 | 174 µM | – |
| O=[N+]([O-])c1ccccc1Sc1ccccc1 | > 100 | 79.4 µM | – |
| O=c1c2cc(Br)ccc2nc(-c2ccccc2Cl)n1NCC1(O)OCC(O)C(O)C1O (stereo not drawn) | – | – | inactive |
| C[C@H]1CN[C@@H]2[C@@H](C)[C@H]3[C@@H](C[C@H]4[C@@H]5CC[C@H]6C[C@@H](N)CC[C@]6(C)[C@H]5CC[C@]34C)O[C@@]2(O)C1 | > 38 | 1.74 µM | – |
| O=C(Nn1cnn2c(=O)c3ccccc3nc2c1=O)c1ccccc1 | > 200 | > 200 µM | – |
| c1ccc2c3c([nH]c2c1)C1c2[nH]c4ccccc4c2CCN1CC3 | > 200 | 11 µM | – |
| Cc1ccc(NC(=S)/C(=C(/[O-])c2ccc([N+](=O)[O-])cc2)[n+]2ccccc2)c(C)c1 | > 200 | > 200 µM | – |
| COc1ccc(OC)c(N=Nc2c(O)c3ccccc3[nH]c2=O)c1 | 47.9 | > 200 µM | – |
| COc1ccc(/C=C\c2cc(OC)c(OC)c(OC)c2)cc1OC(=O)CCC(=O)O | > 0.2 | 0.000562 µM | – |
| Cc1cn(C2CC(N=[N+]=[N-])C(COC(=O)CCCCCCCCCCCBr)O2)c(=O)[nH]c1=O (stereo not drawn) | – | 37.2 µM | active |
| CC1=NN(c2ccccc2)C(=O)/C1=C1\SS/C(=C2\C(=O)N(c3ccccc3)N=C2C)S1 | > 100 | > 100 µM | – |
| CS(=O)(=O)CC1=Nc2nnc(CCCCCCCc3nnc4n3C(=O)C(CS(C)(=O)=O)=N4)n2C1=O | > 10 | > 10 µM | – |
| C=C(c1nc2ccc(Cl)cc2[nH]c1=O)C(O)c1ccc(C(O)C(=O)c2nc3ccc(Cl)cc3[nH]c2=O)cc1 (stereo not drawn) | > 162 | 12 µM | – |
| CN(C)c1ccc(C=C(C(=O)O)C(=O)O)cc1 | > 550 | > 550 µM | – |
| c1ccc(COCC2OC3c4ccccc4COC3C2OCc2ccccc2)cc1 (stereo not drawn) | – | – | inactive |
| O=C1CCC(=O)N2CCCCN12 | > 407 | > 407 µM | – |
| Cc1nn(C)pc1P(C)(=S)n1nc(N(C)C)np1 (stereo not drawn) | > 776 | > 776 µM | – |
| COc1ccc(S(=O)(=O)Cc2ccc(C(=O)O)cc2[N+](=O)[O-])cc1 | > 708 | 646 µM | – |
| Cc1ccccc1N=Nc1c(-c2ccccc2)nn(C(=O)CC(=O)Nc2cccc(Cl)c2)c1-c1ccccc1 | > 25.1 | > 25.1 µM | – |
| COc1ccc2c(c1)c1ccc3c(c1n2C)C(=O)C=CC3=O | > 89.1 | 2.95 µM | – |
| N/C(=N\N=C/c1c(O)cc(O)cc1O)NO | – | – | inactive |

| SMILES | EC50 [µM] | IC50 | outcome |
| --- | --- | --- | --- |
| CCOC(=O)c1sc2[n+](c1C)C(=O)/C(=C/c1cc(OC)c(OC)c(OC)c1)S2 | > 200 | 12.9 µM | – |
| C/C(=N\NC(N)=O)c1sc(-c2nc(C)c(/C(C)=N/NC(N)=O)s2)nc1C | > 9.55 | > 9.55 µM | – |
| CC1=CC(=O)/C(=C\N2C(=O)CC(=O)NC2=S)C(=O)O1 | > 100 | > 100 µM | – |
| CC1OC(OC2C(O)COC(OC3C(C)OC(OC4C(OC(=O)[C@]56CCC(C)(C)C[C@@H]5C5=CCC7[C@@]8(C)C[C@H](O)[C@H](OC9OC(CO)C(O)C(O)C9O)[C@@](C)(CO)[C@@H]8CC[C@@]7(C)[C@]5(C)CC6)OCC(O)C4O)C(O)C3OC3OCC(O)C(O)C3O)C2O)C(O)C(O)C1O (stereo partly drawn) | > 58.9 | 19.5 µM | – |
| CN(C)C(=N/O)/C(=N\O)N(C)C | – | – | inactive |
| O=C(/C=C/c1c(O)ccc2ccccc12)c1ccc2ccccc2c1 | > 112 | > 112 µM | – |
| CCCCCCOP(OCCCCCC)OCCCCCC | – | – | inactive |
| O=C(CNc1cccc([N+](=O)[O-])c1)Nn1c(-c2ccccc2)nc2ccccc2c1=O | > 20 | 1.05 µM | – |
| CC1(C)N=C(C(N)=O)c2ncn(CCCO)c2N1 | > 200 | > 200 µM | – |
| CC(Cc1ccccc1)NC(=O)CCNNC(=O)c1ccncc1 (stereo not drawn) | > 200 | > 200 µM | – |
| CCOc1ccc(-n2c(=O)n3c(Nc4ccc(Cl)cc4)nc4c(c(=O)n(C)c(=O)n4C)n3c2=O)cc1 | > 100 | 66.1 µM | – |
| CCOC(=O)Nc1nn(-c2ccc3ccccc3n2)c(=O)[nH]1 | > 63.1 | 10 µM | – |
| CCOC(=O)C(NO)C(Sc1ccccc1)c1ccc(OC)cc1 (stereo not drawn) | – | – | inactive |
| O=C1C(CN2CCCC2)CCCC1CN1CCCC1 (stereo not drawn) | – | – | inactive |
| Cc1cn(C2CC(N(O)C3C4CC5CC(C4)CC3C5)C(CO)O2)c(=O)[nH]c1=O (stereo not drawn) | > 200 | 120 µM | – |
| COc1ccc(C(C)=O)cc1CN1CCN(Cc2cc(C(C)=O)ccc2OC)CC1 | > 33.1 | > 33.1 µM | – |
| O=[N+]([O-])c1ccc(N=Nc2c(F)cc(NCS(=O)(=O)O)cc2F)cc1 | > 100 | > 100 µM | – |
| CCOC(=O)C[C@@]12CCCNC1(C)CCc1ccccc12 (stereo partly drawn) | – | – | inactive |
| Cc1c2ccccc2nc(CS(=O)(=O)c2ccccc2)[n+]1[O-] | > 200 | 12.6 µM | – |
| [O]=[Bi](=[O])[O]CC(O)CO (stereo not drawn) | > 4.37 | > 4.37 µM | – |
| Cc1nc2ccccc2c(=O)n1NC(=S)Nc1ccccc1 | > 115 | 107 µM | – |
